This note sets out measurements from patent publication US4340606A, “3-(p-Alkylsulfonylphenyl)oxazolidinone derivatives as antibacterial agents” (E. I. Du Pont de Nemours and Company, priority 1980, dated 1982).

Converted amounts (≈) assume the structure as drawn. Where a name gives a salt, the structure may show the parent alone. Bounds are passed on as bounds.

One experiment concerns Staphylococcus aureus. Description: in vivo antibacterial activity, mice infected intraperitoneally, oral dosing. Particulars: oral at infection and 4 hours later, Reed-Muench, mortality, read-out: In-Vivo ED50, S. aureus. The protocol:
(§1) The in vivo antibacterial activity of the compounds was determined as follows.
(§2) Cultures of Staphylococcus aureus or Escherichia coli were grown from stored frozen stocks in trypticase soy broth (BBL), a standard bacteriological growth medium, with shaking until a turbidity of optical density (650μ) of 0.4-0.5 was attained. These cultures were centrifuged and resuspended in either 50% hog gastric mucin for Staphyloccus aureus or saline for Escherichia coli. These suspensions were injected intraperitoneally at dilutions calculated to cause 90-100% mortality within 7 days of the mice of the control groups.
(§3) The compounds were suspended or dissolved in 0.25% Methocel, 15 CPS, at various concentrations. Mice were dosed orally by intubation at the time of infection and again four hours later. Mortality was recorded daily until test termination. The estimated dose 50 (ED50) was calculated by the Reed-Muench method, as described in Reed, L. J. and Muench, H., American Journal of Hygiene, 27, 493-497 (1938), the disclosure of which is herein incorporated by reference.

In a further experiment the test system is Gram positive cocci. Put plainly: in-vitro susceptibility of anaerobic clinical isolates, agar dilution. The format is cell-based. The conditions noted are these: 48-hour, 7 isolates tested for each compound. The protocol: (§4) The inhibitory activity for anaerobic bacteria of 5-chloromethyl-3-(4-difluoromethylsulfonyl)phenyl-2-oxazolidinone and (1)-5-hydroxymethyl-3-(4-methylsulfonyl)phenyl-2-oxazolidinone was determined using the agar dilution method described in Barry, Arthur L., The Antimicrobic Susceptibility Test: Principles and Practices, 1976 Lea & Febiger, Philadelphia.
(§5) ^1 48hour minimum inhibitory concentration determined by agar dilutio
(In agar dilution the substance is mixed into plates at graded concentrations.)

Another experiment deals with Fusobacterium sp. Described as above. The format is cell-based. The conditions noted are these: 48-hour, 4 isolates tested for each compound. The protocol:
as §4, §5

A further experiment relates to Clostridium sp. The description is as above. The format is cell-based. Particulars: 48-hour, 4 isolates tested for each compound. The protocol: as §4, §5
Another experiment concerns Bacteroides sp. The experiment is described as above. The class given is cell-based. The conditions noted are these: 48-hour, 32 isolates (chloromethyl compound), 28 isolates (hydroxymethyl compound). The protocol:
as §4, §5

The test system of a further experiment is anaerobic bacteria. Description: inhibitory activity for anaerobic bacteria, agar dilution. The class given is cell-based. The conditions noted are these: in words, from Table 3. The protocol:
as §4

Experiment [1] deals with Staphylococcus epidermidis. Put plainly: 24-hour minimum inhibitory concentration, microdilution method, Mueller-Hinton broth. The conditions noted are these: S. epidermidis, read-out: In-Vitro MIC. The format is cell-based. The protocol:
The compounds listed below in Table 1 were tested for in vivo and in vitro antibacterial activity. The twenty-four hour minimum inhibitory in vitro concentrations (MIC) for a test strain of Staphylococcus epidermidis of the compounds were determined using a standard microdilution method with Mueller-Hinton broth. This method is described in Conrath, Theodore B., 1972 Handbook of Microtiter Procedures, Dynatech Corporation, Cambridge, Mass., the disclosure of which is herein incorporated by reference. | ^1 24Hour minimum inhibitory concentration: determined by | microdilution method with S. epidermidis as the test organism.

A further experiment concerns Escherichia coli. Put plainly: in vivo antibacterial activity, mice infected intraperitoneally, oral dosing. The conditions noted are these: oral at infection and 4 hours later, Reed-Muench, mortality, read-out: In-Vivo ED50, E. coli. The protocol: as §1, §2, §3
The next experiment has as its system Proteus sp. Put plainly: in-vitro susceptibility of clinical isolates, agar dilution. The class given is cell-based. Particulars: 24-hour, 35° C., 88 isolates. The procedure: (§6) The in-vitro antibacterial activity spectrum of (1)-5-Hydroxymethyl-3-(4-methylsulfonyl)phenyl-2-oxazolidinone, determined by an agar dilution procedure, is shown in table 2. This procedure is known in the art and can be summarized as follows. […] The agar plates were inoculated with a 0.001 ml calibrated loopful of bacterial inoculum diluted to contain 5×10^6 colony forming units (CFU) per ml. […] The test organisms included clinical bacterial isolates representing two gram positive and nine gram negative genera.
(§7) ^1 MIC: Minimum Inhibitory Concentration determined by agar dilution

The next experiment relates to E. coli. The description is as above. The class given is cell-based. The conditions noted are these: Escherichia coli, 24-hour, 35° C., 86 isolates. The protocol: as §6, §7
A further experiment relates to Neisseria sp. Described as above. The format is cell-based. Particulars: 24-hour, 35° C., 42 isolates. The protocol: as §6, §7
A further experiment concerns Hemophilus influenzae. Described as above. The class given is cell-based. Particulars: Haemophilus influenzae, 24-hour, 35° C., 4 isolates. The protocol: as §6, §7
The test system of a further experiment is Salmonella sp. The description is as above. The format is cell-based. Particulars: 24-hour, 35° C., 6 isolates. The procedure: as §6, §7
The subject of the next experiment is Serratia sp. The description is as above. The format is cell-based. The conditions noted are these: 24-hour, 35° C., 44 isolates. The procedure:
as §6, §7

Another experiment deals with Providencia sp. The description is as above. The class given is cell-based. Particulars: 24-hour, 35° C., 12 isolates. The procedure:
as §6, §7

Another experiment has as its system Klebsiella sp. The description is as above. The format is cell-based. Particulars: 24-hour, 35° C., 68 isolates. The protocol:
as §6, §7

The subject of the next experiment is Shigella sp. Described as above. The conditions noted are these: 24-hour, 35° C., 9 isolates. The class given is cell-based. The procedure:
as §6, §7

In another experiment the test system is Staphylococci sp. The experiment is described as above. Particulars: 24-hour, 35° C., 37 isolates. The format is cell-based. The procedure:
as §6, §7

The next experiment has as its system Streptococci sp. Described as above. The class given is cell-based. The conditions noted are these: 24-hour, 35° C., 12 isolates. The procedure:
as §6, §7

The subject of another experiment is Enterobacter sp. The description is as above. The class given is cell-based. The conditions noted are these: 24-hour, 35° C., 41 isolates. The procedure:
as §6, §7

In another experiment the test system is Pseudomonas sp. The experiment is described as above. The class given is cell-based. Particulars: 24-hour, 35° C., 78 isolates. The procedure: as §6, §7

Consider `O=C1OC(CCl)CN1c1ccc(S(=O)(=O)C(F)F)cc1` (stereo not drawn) [5-Chloromethyl-3-(4-difluoromethylsulfonylphenyl)-2-oxazolidinone], for which the ED50 (as a rule, the midpoint of the dose-response relation) in the experiment on Staphylococcus aureus worked out at 20 mg/kg. Moreover, the MIC came out at 0.7 µg/mL (≈ 2.15 µM) against Gram positive cocci; 0.06 µg/mL (≈ 0.184 µM) in the experiment with Fusobacterium sp.; 1 µg/mL (≈ 3.07 µM) in the experiment with Clostridium sp.; 1.8 µg/mL (≈ 5.53 µM) with Bacteroides sp.; 2.5 µg/mL (≈ 7.68 µM) in experiment [1]. Further, the “inhibition of anaerobic bacterial growth” value in the experiment on anaerobic bacteria is given as “potent inhibitors of anaerobic bacterial growth”.

Turning to `O=C1OC(CCl)CN1c1ccc(S(=O)(=O)C(F)(F)F)cc1` (stereo not drawn) [5-Chloromethyl-3-(4-trifluoromethylsulfonylphenyl)-2-oxazolidinone], the ED50 in the experiment with Staphylococcus aureus was 105 mg/kg. Also, in experiment [1], the MIC came out at 4.7 µg/mL (≈ 13.7 µM).

As to `O=C1OC(CO)CN1c1ccc(S(=O)(=O)C(F)(F)F)cc1` (stereo not drawn) [5-Hydroxymethyl-3-(4-trifluoromethylsulfonylphenyl)-2-oxazolidinone], the ED50 with Staphylococcus aureus came out at 20 mg/kg. Also, the MIC in [1] came to 12.5 µg/mL (≈ 38.4 µM).

Take `CC(=O)OCC1CN(c2ccc(S(C)(=O)=O)cc2)C(=O)O1` (stereo not drawn) [5-Acetoxymethyl-3-(4-methylsulfonyl)phenyl-2-oxazolidinone]: in the experiment with Staphylococcus aureus, the ED50 was determined as 100 mg/kg. The MIC in experiment [1] is over 50 µg/mL.

As for `CCS(=O)(=O)c1ccc(N2CC(CCl)OC2=O)cc1` (stereo not drawn) [5-chloromethyl-3-(4-ethylsulfonyl)phenyl-2-oxazolidinone], in [1], the MIC turned out to be 50 µg/mL (≈ 165 µM).

As for `O=C1OC(CO)CN1c1ccc(S(=O)(=O)C(F)F)cc1` (stereo not drawn) [5-Hydroxymethyl-3-(4-difluoromethylsulfonylphenyl)-2-oxazolidinone], the ED50 in the experiment with Staphylococcus aureus was determined as 23 mg/kg; with Escherichia coli it was 27 mg/kg. Besides, the MIC in experiment [1] was 3.1 µg/mL (≈ 10.1 µM).

`CS(=O)(=O)c1ccc(N2CC(COC(=O)CCC(=O)O)OC2=O)cc1` (racemic) [(dl)-3-(4-Methylsulfonylphenyl)-2-oxooxazolidin-5-ylmethyl 1,4-Butanedioic Acid Mono Ester, Mono Sodium Salt]: the ED50 turned out to be 26 mg/kg with Staphylococcus aureus and 40 mg/kg in the experiment with Escherichia coli. Besides, the MIC in experiment [1] was over 50 µg/mL.

For the compound `CS(=O)(=O)c1ccc(N2CC(COC(=O)CCC(=O)O)OC2=O)cc1` (single isomer, unassigned) [l-3-(4-Methylsulfonylphenyl)-2-oxooxazolidin-5-ylmethyl 1,4-Butanediodic Acid Mono Ester, Mono Sodium Salt], in the experiment with Staphylococcus aureus, the ED50 is 20 mg/kg.

Regarding `CS(=O)(=O)c1ccc(N2C[C@H](CO)OC2=O)cc1` [R-(-)-3-(4-Methylsulfonylphenyl)-5-hydroxymethyl-2-oxazolidinone], the ED50 in the experiment on Staphylococcus aureus amounted to 9 mg/kg; with Escherichia coli, 25 mg/kg. For the same compound, the MIC was 21.7 µg/mL (≈ 80 µM) in the experiment on Proteus sp.; 21.7 µg/mL (≈ 80 µM) with E. coli; 10.5 µg/mL (≈ 38.7 µM) against Neisseria sp.; 16 µg/mL (≈ 59 µM) with Hemophilus influenzae; 16 µg/mL (≈ 59 µM) against Salmonella sp.; at least 108 µg/mL in the experiment on Serratia sp.. Also, the MIC in the experiment on Providencia sp. came to 26.7 µg/mL (≈ 98.4 µM); against Klebsiella sp., 37.5 µg/mL (≈ 138 µM); against Shigella sp., 11.6 µg/mL (≈ 42.8 µM); with Staphylococci sp. it was 3.8 µg/mL (≈ 14 µM); in the experiment with Streptococci sp., 3.7 µg/mL (≈ 13.6 µM); with Enterobacter sp., 37.9 µg/mL (≈ 140 µM). The MIC was at least 128 µg/mL with Pseudomonas sp.; 1.3 µg/mL (≈ 4.79 µM) with Gram positive cocci; 0.3 µg/mL (≈ 1.11 µM) against Fusobacterium sp.; 7 µg/mL (≈ 25.8 µM) in the experiment with Clostridium sp.; 3.4 µg/mL (≈ 12.5 µM) against Bacteroides sp.; 12.5 µg/mL (≈ 46.1 µM) in [1]. The “inhibition of anaerobic bacterial growth” value with anaerobic bacteria was “potent inhibitors of anaerobic bacterial growth”.

As to `CS(=O)(=O)c1ccc(N2CC(CO)OC2=O)cc1` (racemic) [5-Hydroxymethyl-3-(4-methylsulfonylphenyl)-2-oxazolidinone], the values for the ED50 in the experiment with Staphylococcus aureus and in the experiment on Escherichia coli were 18 mg/kg and 40 mg/kg, respectively. Also, the MIC in experiment [1] amounted to 12.5 µg/mL (≈ 46.1 µM).

As to `C[S+]([O-])c1ccc(N2CC(CCl)OC2=O)cc1` (stereo not drawn) [5-chloromethyl-3-(4-methylsulfinyl)phenyl-2-oxazolidinone], the MIC in [1] worked out at 25 µg/mL (≈ 91.3 µM).

As for `C[S+]([O-])c1ccc(N2CC(CO)OC2=O)cc1` (stereo not drawn) [5-Hydroxymethyl-3-(4-methylsulfinylphenyl)-2-oxazolidinone], the ED50 in the experiment on Staphylococcus aureus stood at 27 mg/kg. Also, in experiment [1], the MIC was determined as 50 µg/mL (≈ 196 µM).

With `CS(=O)(=O)c1ccc(N2CC(CF)OC2=O)cc1` (stereo not drawn) [5-Fluoromethyl-3-(4-methylsulfonyl)phenyl-2-oxazolidinone], the ED50 with Staphylococcus aureus was 35 mg/kg. Moreover, the MIC in [1] amounted to 20 µg/mL (≈ 73.2 µM).

`CS(=O)(=O)c1ccc(N2CC(CBr)OC2=O)cc1` (stereo not drawn) [5-Bromomethyl-3-(4-methylsulfonyl)phenyl-2-oxazolidinone]: in experiment [1], the MIC was found to be 5 µg/mL (≈ 15 µM).

In the case of `CS(=O)(=O)c1ccc(N2CC(CCl)OC2=O)cc1` (stereo not drawn) [5-Chloromethyl-3-(4-methylsulfonylphenyl)-2-oxazolidinone], the ED50 was found to be 29 mg/kg with Staphylococcus aureus and 63 mg/kg in the experiment with Escherichia coli. The MIC in [1] is 5 µg/mL (≈ 17.3 µM).

`O=C1OC(CO)CN1c1ccc(S(=O)(=O)C(F)(F)C(F)F)cc1` (stereo not drawn) [5-Hydroxymethyl-3-[4-(1,1,2,2-tetrafluoroethylsulfonyl)phenyl]-2-oxazolidinone]: the ED50 in the experiment on Staphylococcus aureus was 108 mg/kg. In addition, the MIC in [1] came to 12.5 µg/mL (≈ 35 µM).

`O=C1OC(CCl)CN1c1ccc(S(=O)(=O)C(F)(F)C(F)F)cc1` (stereo not drawn) [5-Chloromethyl-3-[4-(1,1,2,2-tetrafluoroethylsulfonyl)phenyl]-2-oxazolidinone]: in the experiment with Staphylococcus aureus, the ED50 was 92 mg/kg. In addition, the MIC in [1] is 10 µg/mL (≈ 26.6 µM).

Turning to `C[C@H](N)C(=O)OCC1CN(c2ccc(S(C)(=O)=O)cc2)C(=O)O1` (stereo partly drawn) [5-(L)-Alanyloxymethyl-(1)-3-(4-methylsulfonyl)phenyl-2-oxazolidinone trifluoroacetic acid salt], the ED50 in the experiment on Staphylococcus aureus is 14 mg/kg. The MIC in experiment [1] came to 25 µg/mL.
